Reference: BigSolDB 2.1

CC(=O)Oc1cc(C)c(OC(C)=O)c2ccccc12
solubility (mole fraction)
Conditions	283.1 K	288.1 K	293.1 K	298.1 K	303.1 K	308.1 K	313.1 K	318.1 K	323.1 K
in cyclohexanol	0.00261	0.00403	0.00595	0.0082	0.0105	0.0138	0.0182	0.0245	0.033
in ethanol	0.00323	0.00417	0.00532	0.00656	0.00839	0.0108	0.014	0.0184	0.0242
in ethyl acetate	0.0691	0.0795	0.0907	0.103	0.118	0.135	0.156	0.179	0.204
in isobutanol	0.00212	0.0029	0.00384	0.00526	0.00708	0.00958	0.0131	0.018	0.0249
in isopentanol	0.00241	0.00329	0.00422	0.0056	0.00766	0.0102	0.0137	0.0183	0.025
in isopropanol	0.00185	0.0025	0.00334	0.00444	0.00605	0.0081	0.011	0.0152	0.0209
in methanol	0.00461	0.0057	0.0071	0.00877	0.0112	0.0139	0.0173	0.0221	0.032
in methyl acetate	0.0839	0.096	0.109	0.123	0.14	0.159	0.178	0.198	0.22
in n-butanol	0.00257	0.00352	0.00459	0.00595	0.00794	0.0104	0.0139	0.0185	0.0253
in n-butyl acetate	0.0497	0.0573	0.0665	0.077	0.0897	0.105	0.122	0.142	0.165
in n-pentanol	0.00266	0.00374	0.00498	0.00667	0.0092	0.0122	0.0164	0.0219	0.0288
in n-pentyl acetate	0.0429	0.0501	0.0592	0.0681	0.0791	0.093	0.108	0.128	0.15
in n-propanol	0.00265	0.00345	0.00473	0.00629	0.00799	0.0106	0.014	0.0186	0.0252
in n-propyl acetate	0.0592	0.0673	0.0771	0.0895	0.104	0.12	0.138	0.159	0.183
